biological target: T1, GST-ALK5 (Homo sapiens, UniProt P36897); assay: In-vitro (enzyme) kinase assay, 384-well flashplate (example 14); format: biochemical; details: GST-ALK5, GST-SMAD2 substrate, 33P-ATP flashplate, 30° C. 45 min; IC50 classes; read-out: TβR activity (example 14)
T1 sequence (P36897 34-503): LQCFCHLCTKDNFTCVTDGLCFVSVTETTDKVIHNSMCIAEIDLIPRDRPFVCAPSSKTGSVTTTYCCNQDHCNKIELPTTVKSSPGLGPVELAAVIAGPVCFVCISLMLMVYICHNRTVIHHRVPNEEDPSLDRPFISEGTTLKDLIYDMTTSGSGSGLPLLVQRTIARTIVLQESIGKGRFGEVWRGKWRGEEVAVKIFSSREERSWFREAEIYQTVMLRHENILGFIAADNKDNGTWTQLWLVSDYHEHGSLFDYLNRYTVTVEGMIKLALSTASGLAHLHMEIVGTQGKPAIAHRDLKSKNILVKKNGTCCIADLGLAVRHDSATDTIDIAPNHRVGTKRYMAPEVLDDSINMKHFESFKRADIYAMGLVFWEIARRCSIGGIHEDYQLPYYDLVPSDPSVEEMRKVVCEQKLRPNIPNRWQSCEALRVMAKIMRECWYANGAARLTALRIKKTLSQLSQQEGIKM
Protocol: In-Vitro (Enzyme) Assay for Determination of the Efficacy of Inhibitors of the Inhibition of TGF-Beta-Mediated Effects
The kinase assay was carried out as 384-well flashplate assay. 31.2 nM of GST-ALK5, 439 nM of GST-SMAD2 and 3 mM of ATP (with 0.3 μCi of ^33P-ATP/well) were incubated in a total volume of 35 μl (20 mM of HEPES, 10 mM of MgCl2, 5 mM of MnCl2, 1 mM of DTT, 0.1% of BSA, pH 7.4) without or with test substance (5-10 concentrations) at 30° C. for 45 min. The reaction was stopped using 25 μl of 200 mM EDTA solution, filtered with suction at room temperature after 30 min, and the wells were washed with 3 times 100 μl of 0.9% NaCl solution. Radioactivity was measured in the TopCount. The IC50 values were calculated using RS1. Above and below, all temperatures were indicated in ° C.

Row | Compound | IC50
1 | CC(=O)Nc1cc(Nc2cc(-c3cc(F)ccc3F)nc3ncccc23)ncn1 [compound 89] | < 100 nM
2 | Fc1ccc(C(F)(F)F)cc1-c1cc(Nc2ncncn2)c2cccnc2n1 [compound 44] | < 100 nM
3 | CC(=O)Nc1cc(Nc2cc(-c3cc(Cl)ccc3F)nc3ncccc23)ccn1 [compound 67] | < 100 nM
4 | OCc1cnccc1Nc1cc(-c2cc(F)ccc2F)nc2ncccc12 [compound 78] | < 100 nM
5 | CN(C)c1cc(Nc2cc(-c3cc(F)ccc3F)nc3ncccc23)ncn1 [compound 137] | > 10000 nM
6 | Cn1ccc(-c2cc(Nc3ccncc3)c3cccnc3n2)n1 [compound 35] | 100 to 1000 nM
7 | CN1CCN(c2ccc(Nc3cc(Nc4cc(-c5cc(Cl)ccc5F)nc5ncccc45)ccn3)cc2)CC1 [compound 27] | 100 to 1000 nM
8 | Nc1cc(Nc2cc(-c3cc(C(F)(F)F)ccc3F)nc3ncccc23)ncn1 [compound 32] | < 100 nM
9 | O=C(O)c1cc(Nc2cc(-c3cc(Cl)ccc3F)nc3ncccc23)ccn1 [compound 68] | 1000 to 10000 nM
10 | Fc1ccc(Cl)cc1-c1cc(Nc2ccncc2OCCN2CCOCC2)c2cccnc2n1 [compound 04] | 100 to 1000 nM
11 | N#Cc1cncnc1Nc1cc(-c2cc(Cl)ccc2F)nc2ncccc12 [compound 41] | < 100 nM
12 | Cc1cccc(-c2cc(Nc3ccncn3)c3cccnc3n2)n1 [compound 49] | < 100 nM
13 | c1cnc2nc(-c3cnccn3)cc(Nc3ccncc3)c2c1 [compound 24] | 1000 to 10000 nM
14 | Fc1ccc(C(F)(F)F)cc1-c1cc(Nc2ccncc2)c2cccnc2n1 [compound 16] | < 100 nM
15 | Clc1cccc(-c2cc(Nc3ccncc3)c3cccnc3n2)c1 [compound 11] | < 100 nM
16 | Cc1cccc(-c2cc(-n3ccc4cncnc43)c3cccnc3n2)n1 [compound 59] | 100 to 1000 nM
17 | Cc1cccc(-c2cc(-n3ccc4cnccc43)c3cccnc3n2)n1 [compound 57] | < 100 nM
18 | OCc1cnccc1Nc1cc(-c2cc(Cl)ccc2F)nc2ncccc12 [compound 20] | < 100 nM
19 | CN1CCC(COc2cnccc2Nc2cc(-c3cc(Cl)ccc3F)nc3ncccc23)CC1 [compound 47] | < 100 nM
20 | N#Cc1cnccc1Nc1cc(-c2cc(Cl)ccc2F)nc2ncccc12 [compound 65] | < 100 nM
21 | Fc1ccc(Cl)cc1-c1cc(Nc2ccncc2)c2cccnc2n1 [compound 01] | < 100 nM
22 | CNC(=O)c1cc(Nc2cc(-c3cc(Cl)ccc3F)nc3ncccc23)ccn1 [compound 53] | < 100 nM
23 | OCCOc1cnccc1Nc1cc(-c2cc(Cl)ccc2F)nc2ncccc12 [compound 09] | < 100 nM
24 | CN(C)CCOc1cnccc1Nc1cc(-c2cc(Cl)ccc2F)nc2ncccc12 [compound 23] | < 100 nM

Row | Compound | IC50
25 | Fc1ccc(C(F)(F)F)cc1-c1cc(Nc2ccncn2)c2cccnc2n1 [compound 21] | < 100 nM
26 | OCc1cnccc1Nc1cc(-c2cc(C(F)(F)F)ccc2F)nc2ncccc12 [compound 37] | < 100 nM
27 | CCNC(=O)c1cnccc1Nc1cc(-c2cccc(C)n2)nc2ncccc12 [compound 60] | < 100 nM
28 | Fc1cc(F)c(-c2cc(Nc3ccncn3)c3cccnc3n2)cc1F [compound 50] | < 100 nM
29 | Fc1ccc(Cl)cc1-c1cc(Nc2ccncn2)c2cccnc2n1 [compound 05] | < 100 nM
30 | CNC(=O)c1cnccc1Nc1cc(-c2cc(Cl)ccc2F)nc2ncccc12 [compound 42] | < 100 nM
31 | Fc1ccc(C(F)(F)F)cc1-c1cc(-n2ccc3cnccc32)c2cccnc2n1 [compound 30] | < 100 nM
32 | Nc1cnccc1Nc1cc(-c2cc(Cl)ccc2F)nc2ncccc12 [compound 22] | < 100 nM
33 | Fc1ccc(Cl)cc1-c1cc(Nc2ccnc(Nc3cc(-c4cc(Cl)ccc4F)nc4ncccc34)n2)c2cccnc2n1 [compound 39] | 1000 to 10000 nM
34 | Fc1cc(F)c(-c2cc(Nc3ccncc3)c3cccnc3n2)cc1F [compound 43] | < 100 nM
35 | Fc1ccc(Cl)cc1-c1cc(Nc2ncncn2)c2cccnc2n1 [compound 18] | < 100 nM
36 | Nc1cc(Nc2cc(-c3cc(Cl)ccc3F)nc3ncccc23)ncn1 [compound 02] | < 100 nM
37 | CN1CCN(c2cc(Nc3cc(-c4cc(Cl)ccc4F)nc4ncccc34)ccn2)CC1 [compound 08] | 1000 to 10000 nM
38 | CC(C)(C)OC(=O)Nc1nccc(Nc2cc(-c3cc(Cl)ccc3F)nc3ncccc23)n1 [compound 51] | < 100 nM
39 | Fc1ccccc1-c1cc(Nc2ccncn2)c2cccnc2n1 [compound 17] | < 100 nM
40 | CN(C)CCCOc1cnccc1Nc1cc(-c2cc(Cl)ccc2F)nc2ncccc12 [compound 33] | < 100 nM
41 | Fc1ccc(F)c(-c2cc(Nc3ccncc3)c3cccnc3n2)c1 [compound 13] | < 100 nM
42 | Fc1ccc(Cl)cc1-c1cc(Oc2ccncc2)c2cccnc2n1 [compound 56] | > 10000 nM
43 | Cc1cccc(-c2cc(Nc3cc(N)ncn3)c3cccnc3n2)n1 [compound 55] | < 100 nM
44 | Cc1ccn(-c2cc(Nc3ccncc3)c3cccnc3n2)n1 [compound 28] | < 100 nM
45 | Fc1ccc(Cl)cc1-c1cc(-n2ccc3cncnc32)c2cccnc2n1 [compound 54] | < 100 nM
46 | N#Cc1ccccc1-c1cc(Nc2ccncc2)c2cccnc2n1 [compound 61] | 100 to 1000 nM
47 | FC(F)(F)c1cccc(-c2cc(Nc3ccncc3)c3cccnc3n2)c1 [compound 12] | < 100 nM
48 | Fc1ccc(Cl)cc1-c1cc(-n2ccc3cnccc32)c2cccnc2n1 [compound 14] | < 100 nM

Row | Compound | IC50
49 | CCOc1cc(Nc2cc(-c3cc(Cl)ccc3F)nc3ncccc23)ccn1 [compound 07] | 100 to 1000 nM
50 | O=C(O)c1cnccc1Nc1cc(-c2cc(Cl)ccc2F)nc2ncccc12 [compound 63] | < 100 nM
51 | COCCOc1cnccc1Nc1cc(-c2cc(C(F)(F)F)ccc2F)nc2ncccc12 [compound 26] | < 100 nM
52 | Fc1ccc(Cl)cc1-c1cc(Nc2ccncc2OCCCN2CCOCC2)c2cccnc2n1 [compound 34] | < 100 nM
53 | Nc1nccc(Nc2cc(-c3cc(Cl)ccc3F)nc3ncccc23)n1 [compound 52] | < 100 nM
54 | Cn1nccc1-c1cc(Nc2ccncc2)c2cccnc2n1 [compound 36] | 1000 to 10000 nM
55 | O=c1[nH]c2cnccc2n1-c1cc(-c2cc(Cl)ccc2F)nc2ncccc12 [compound 29] | < 100 nM
56 | COC(=O)c1cnccc1Nc1cc(-c2cc(Cl)ccc2F)nc2ncccc12 [compound 40] | < 100 nM
57 | c1cnc2nc(-c3cn[nH]c3)cc(Nc3ccncc3)c2c1 [compound 31] | 100 to 1000 nM
58 | c1ccc(-c2cc(Nc3ccncc3)c3cccnc3n2)nc1 [compound 25] | < 100 nM
59 | Cc1nn(-c2cc(-c3cc(Cl)ccc3F)nc3ncccc23)c2ccncc12 [compound 71] | < 100 nM
60 | COCCOc1cnccc1Nc1cc(-c2cc(Cl)ccc2F)nc2ncccc12 [compound 15] | < 100 nM
61 | Fc1ccc(OC(F)(F)F)cc1-c1cc(Nc2ccncc2)c2cccnc2n1 [compound 38] | < 100 nM
62 | CCN(CCOc1cnccc1Nc1cc(-c2cc(Cl)ccc2F)nc2ncccc12)C(=O)OC(C)(C)C [compound 45] | 100 to 1000 nM
63 | Cc1cccc(-c2cc(Nc3ccncc3)c3cccnc3n2)n1 [compound 03] | < 100 nM
64 | CCNCCOc1cnccc1Nc1cc(-c2cc(Cl)ccc2F)nc2ncccc12 [compound 46] | 100 to 1000 nM
65 | Cn1cc(-c2cc(Nc3ccncc3)c3cccnc3n2)cn1 [compound 19] | 1000 to 10000 nM
66 | COC(=O)c1cc(Nc2cc(-c3cc(Cl)ccc3F)nc3ncccc23)ccn1 [compound 48] | < 100 nM
67 | Fc1ccc(Cl)cc1-c1cc(Sc2ccncc2)c2cccnc2n1 [compound 58] | < 100 nM
68 | Fc1ccc(Cl)cc1-c1cc(Nc2ccnc(Cl)c2)c2cccnc2n1 [compound 62] | < 100 nM
69 | CC(C)C(=O)Nc1cc(Nc2cc(-c3cc(Cl)ccc3F)nc3ncccc23)ccn1 [compound 70] | < 100 nM
70 | Fc1ccccc1-c1cc(Nc2ccncc2)c2cccnc2n1 [compound 10] | < 100 nM
71 | Fc1ccc(-c2cc(Nc3ccncc3)c3cccnc3n2)cc1 [compound 06] | < 100 nM

test system: lung epithelial cell line Mv1Lu; assay: Cellular assay for TGF-beta receptor I kinase inhibitors: elimination of TGF-beta-mediated growth inhibition (example 13); format: cell-based; details: 48 h; Mv1Lu cells, 1 ng/ml TGF-beta, 0.5% FCS, two days, Crystal Violet staining; read-out: TβR activity (example 13)
Protocol: Cellular Assay for Testing TGF-Beta Receptor I Kinase Inhibitors
As an example, the ability of the inhibitors to eliminate TGF-beta-mediated growth inhibition was tested. Cells of the lung epithelial cell line Mv1Lu were sown in a defined cell density in a 96-well microtiter plate and cultivated overnight under standard conditions. Next day, the medium was replaced by medium which comprises 0.5% of FCS and 1 ng/ml of TGF-beta, and the test substances were added in defined concentrations, generally in the form of dilution series with 5 fold steps. The concentration of the solvent DMSO was constant at 0.5%. After a further two days, Crystal Violet staining of the cells was carried out. After extraction of the Crystal Violet from the fixed cells, the absorption was measured spectrophotometrically at 550 nm. It could be used as a quantitative measure of the adherent cells present and thus of the cell proliferation during the culture.

Row | Compound | IC50
72 | CC(=O)Nc1cc(Nc2cc(-c3cc(F)ccc3F)nc3ncccc23)ncn1 [compound 89] | < 100 nM
73 | OCc1cnccc1Nc1cc(-c2cc(F)ccc2F)nc2ncccc12 [compound 78] | < 100 nM
74 | CN(C)c1cc(Nc2cc(-c3cc(F)ccc3F)nc3ncccc23)ncn1 [compound 137] | > 10000 nM
